In patent US6054435A, “6-O-substituted macrolides having antibacterial activity” (priority 1999, dated 2000):
In brackets after ≈: the same amount, converted by molar mass.

Key:
Test in all cases: in vitro antibacterial activity (MIC), agar dilution
Assay type in all cases: cell-based
[1] = tested on: Streptococcus Pneumonia ATCC6303; settings: organism code XX; BHI agar, 35-37° C., 20 to 24 hours; unit assumed
How it was run: (§1)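 Test compound serially diluted in Brain Heart Infusion agar across twelve plates; inocula of 1:100 dilution (1:10 for slow growers such as Streptococcus) applied by Steers replicator. MIC taken visually as lowest concentration giving no growth, slight haze or sparse isolated colonies versus drug-free growth control.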

[2] = tested on: Streptococcus Pneumonia 5979; settings: organism code ZZ; BHI agar, 35-37° C., 20 to 24 hours; unit assumed
How it was run: as §1

[3] = tested on: Escherichia coli DC-2; settings: organism code SS; BHI agar, 35-37° C., 20 to 24 hours; unit assumed
How it was run: as §1

[4] = tested on: Micrococcus luteus ATCC 4698; settings: organism code PP; BHI agar, 35-37° C., 20 to 24 hours; unit assumed
How it was run: (§2)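 Agar dilution in BHI agar, twelve successive compound dilutions. Inoculum 1:100, or 1:10 for slow-growing strains (e.g. Streptococcus), replicator-spotted. Read by eye; MIC = lowest concentration with no growth, slight haze or sparsely isolated colonies relative to growth control.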

[5] = tested on: Staphylococcus aureus 1775; settings: organism code GG; BHI agar, 35-37° C., 20 to 24 hours; unit assumed
How it was run: as §1

[6] = tested on: Mycobacterium smegmatis ATCC 114; settings: organism code UU; BHI agar, 35-37° C., 20 to 24 hours; unit assumed
How it was run: as §1

[7] = tested on: Micrococcus luteus ATCC 9341; settings: organism code OO; BHI agar, 35-37° C., 20 to 24 hours; unit assumed
How it was run: as §2

[8] = tested on: Staphylococcus aureus CMX 553; settings: organism code FF; BHI agar, 35-37° C., 20 to 24 hours; unit assumed
How it was run: as §1

[9] = tested on: Staphylococcus aureus NCTC10649M; settings: organism code EE; BHI agar, 35-37° C., 20 to 24 hours; unit assumed
How it was run: as §1

[10] = tested on: Staphylococcus aureus CMX 642A; settings: organism code DD; BHI agar, 35-37° C., 20 to 24 hours; unit assumed
How it was run: as §1

[11] = tested on: Candida albicans CCH 442; settings: organism code TT; BHI agar, 35-37° C., 20 to 24 hours; unit assumed
How it was run: as §1

[12] = tested on: Streptococcus pyogenes 930; settings: organism code MM; BHI agar, 35-37° C., 20 to 24 hours; unit assumed
How it was run: as §1

[13] = tested on: Nocardia Asteroides ATCC9970; settings: organism code VV; BHI agar, 35-37° C., 20 to 24 hours; unit assumed
How it was run: as §1

[14] = tested on: Staphylococcus aureus ATCC 6538P; settings: organism code AA; BHI agar, 35-37° C., 20 to 24 hours; unit assumed
How it was run: as §1

[15] = tested on: Staphylococcus epidermidis 3519; settings: organism code HH; BHI agar, 35-37° C., 20 to 24 hours; unit assumed
How it was run: as §1

[16] = tested on: Streptococcus agalactiae CMX 508; settings: organism code KK; BHI agar, 35-37° C., 20 to 24 hours; unit assumed
How it was run: as §1

[17] = tested on: Escherichia coli JUHL; settings: organism code QQ; BHI agar, 35-37° C., 20 to 24 hours; unit assumed
How it was run: as §1

[18] = tested on: Streptococcus pyogenes PIU 2548; settings: organism code NN; BHI agar, 35-37° C., 20 to 24 hours; unit assumed
How it was run: as §1

[19] = tested on: Haemophilis Influenzae DILL AMP R; settings: organism code WW; BHI agar, 35-37° C., 20 to 24 hours; unit assumed
How it was run: as §1

[20] = tested on: Streptococcus bovis A-5169; settings: organism code JJ; BHI agar, 35-37° C., 20 to 24 hours; unit assumed
How it was run: as §1

[21] = tested on: Escherichia coli SS; settings: organism code RR; BHI agar, 35-37° C., 20 to 24 hours; unit assumed
How it was run: as §1

[22] = tested on: Streptococcus pyogenes EES61; settings: organism code LL; BHI agar, 35-37° C., 20 to 24 hours; unit assumed
How it was run: as §1

[23] = tested on: Streptococcus Pneumonia GYR 1171; settings: organism code YY; BHI agar, 35-37° C., 20 to 24 hours; unit assumed
How it was run: as §1

[24] = tested on: Enterococcus faecium ATCC 8043; settings: organism code II; BHI agar, 35-37° C., 20 to 24 hours; unit assumed
How it was run: as §1

[25] = tested on: Streptococcus Pneumonia 5649; settings: organism code ZZA; BHI agar, 35-37° C., 20 to 24 hours; unit assumed
How it was run: as §1

[26] = tested on: Staphylococcus aureus A-5278; settings: organism code CC; BHI agar, 35-37° C., 20 to 24 hours; unit assumed
How it was run: as §1

[27] = tested on: Staphylococcus aureus A5177; settings: organism code BB; BHI agar, 35-37° C., 20 to 24 hours; unit assumed
How it was run: as §1

SMILES	MIC [1]	MIC [2]	MIC [3]	MIC [4]	MIC [5]	MIC [6]	MIC [7]	MIC [8]	MIC [9]	MIC [10]	MIC [11]	MIC [12]	MIC [13]	MIC [14]	MIC [15]	MIC [16]	MIC [17]	MIC [18]	MIC [19]	MIC [20]	other results
CC[C@H]1OC(=O)[C@H](C)C(=O)[C@H](C)[C@@H](O[C@@H]2O[C@H](C)C[C@H](N(C)C)[C@H]2O)[C@](C)(OCC#Cc2ccc(-c3nccn3C)s2)C[C@@H](C)C(=O)[C@H](C)[C@H]2NC(=O)O[C@@]21C [Example 32]	0.03 µg/mL (≈ 0.0375 µM)	0.25 µg/mL (≈ 0.313 µM)	> 100 µg/mL	0.05 µg/mL (≈ 0.0626 µM)	> 100 µg/mL	1.56 µg/mL (≈ 1.95 µM)	0.01 µg/mL (≈ 0.0125 µM)	0.05 µg/mL (≈ 0.0626 µM)	0.1 µg/mL (≈ 0.125 µM)	0.05 µg/mL (≈ 0.0626 µM)	> 100 µg/mL	12.5 µg/mL (≈ 15.6 µM)	0.01 µg/mL (≈ 0.0125 µM)	0.05 µg/mL (≈ 0.0626 µM)	0.1 µg/mL (≈ 0.125 µM)	0.01 µg/mL (≈ 0.0125 µM)	50 µg/mL (≈ 62.6 µM)	0.39 µg/mL (≈ 0.488 µM)	2 µg/mL (≈ 2.5 µM)	≤ 0.005 µg/mL	MIC [21]: 0.2 µg/mL (≈ 0.25 µM); MIC [22]: 0.01 µg/mL (≈ 0.0125 µM); MIC [23]: 0.03 µg/mL (≈ 0.0375 µM); MIC [24]: 0.02 µg/mL (≈ 0.025 µM); MIC [25]: 0.25 µg/mL (≈ 0.313 µM); MIC [26]: > 100 µg/mL; MIC [27]: 0.05 µg/mL (≈ 0.0626 µM)
CC[C@H]1OC(=O)[C@H](C)C(=O)[C@H](C)[C@@H](O[C@@H]2O[C@H](C)C[C@H](N(C)C)[C@H]2O)[C@](C)(OC/C=C/c2cncc(-c3ccco3)c2)C[C@@H](C)C(=O)[C@H](C)[C@H]2NC(=O)O[C@@]21C [Example 50]	≤ 0.004 µg/mL	128 µg/mL (≈ 164 µM)	50 µg/mL (≈ 63.9 µM)	0.1 µg/mL (≈ 0.128 µM)	> 100 µg/mL	0.39 µg/mL (≈ 0.499 µM)	0.01 µg/mL (≈ 0.0128 µM)	0.02 µg/mL (≈ 0.0256 µM)	0.1 µg/mL (≈ 0.128 µM)	0.05 µg/mL (≈ 0.0639 µM)	> 100 µg/mL	12.5 µg/mL (≈ 16 µM)	0.05 µg/mL (≈ 0.0639 µM)	0.05 µg/mL (≈ 0.0639 µM)	0.05 µg/mL (≈ 0.0639 µM)	0.01 µg/mL (≈ 0.0128 µM)	25 µg/mL (≈ 32 µM)	0.1 µg/mL (≈ 0.128 µM)	2 µg/mL (≈ 2.56 µM)	0.01 µg/mL (≈ 0.0128 µM)	MIC [21]: 0.39 µg/mL (≈ 0.499 µM); MIC [22]: 0.02 µg/mL (≈ 0.0256 µM); MIC [23]: ≤ 0.004 µg/mL; MIC [24]: 0.05 µg/mL (≈ 0.0639 µM); MIC [25]: 0.12 µg/mL (≈ 0.153 µM); MIC [26]: > 100 µg/mL; MIC [27]: 0.02 µg/mL (≈ 0.0256 µM)
CC[C@H]1OC(=O)[C@H](C)C(=O)[C@H](C)[C@@H](O[C@@H]2O[C@H](C)C[C@H](N(C)C)[C@H]2O)[C@](C)(OCC#Cc2ccc(-c3cccc(C(F)(F)F)c3)s2)C[C@@H](C)C(=O)[C@H](C)[C@H]2NC(=O)O[C@@]21C [Example 19]	0.125 µg/mL (≈ 0.145 µM)	4 µg/mL (≈ 4.63 µM)	> 100 µg/mL	0.39 µg/mL (≈ 0.452 µM)	12.5 µg/mL (≈ 14.5 µM)	0.39 µg/mL (≈ 0.452 µM)	0.2 µg/mL (≈ 0.232 µM)	0.39 µg/mL (≈ 0.452 µM)	0.39 µg/mL (≈ 0.452 µM)	0.39 µg/mL (≈ 0.452 µM)	> 100 µg/mL	3.1 µg/mL (≈ 3.59 µM)	0.39 µg/mL (≈ 0.452 µM)	0.39 µg/mL (≈ 0.452 µM)	0.39 µg/mL (≈ 0.452 µM)	0.05 µg/mL (≈ 0.0579 µM)	> 100 µg/mL	0.39 µg/mL (≈ 0.452 µM)	4 µg/mL (≈ 4.63 µM)	0.05 µg/mL (≈ 0.0579 µM)	MIC [21]: 3.1 µg/mL (≈ 3.59 µM); MIC [22]: 0.1 µg/mL (≈ 0.116 µM); MIC [23]: 0.125 µg/mL (≈ 0.145 µM); MIC [24]: 0.39 µg/mL (≈ 0.452 µM); MIC [25]: 1 µg/mL (≈ 1.16 µM); MIC [26]: 25 µg/mL (≈ 29 µM); MIC [27]: 0.39 µg/mL (≈ 0.452 µM)
